How the values were obtained:
SERT Q332A = SERT Q332A (Homo sapiens, UniProt P31645, Q332A); test: [3H]5-HT transport, COS-7 cells, S2 mutant Q332A; assay type: cell-based
Description: (§1) All determinations were performed in triplicate.

SERT F335A = SERT F335A (Homo sapiens, UniProt P31645, F335A); test: [3H]5-HT transport, COS-7 cells, S2 mutant F335A; assay type: cell-based
Description: as §1

SERT WT = SERT WT (Homo sapiens, UniProt P31645); test: [3H]IMI dissociation rate assay (allosteric potency), COS-7 membranes; assay type: binding; set-up: expressed in transfected cells; host or cells: COS-7;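 further: radioligand pre-bound 30 min at room temperature to equilibrium, then dissociation followed over 5–70 min, ended by filtration through GF/B filters, at least three independent experiments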
SERT = settings: cited from earlier work

## NCCc1c[nH]c2ccc(O)cc12 [5-HT, 5-[1,2-^3H]hydroxytryptamine]
SERT Q332A
  5-HT VMAX: 1151 ± 64 pmol/min/10^5 cells
SERT F335A
  5-HT VMAX: 2368 ± 394 pmol/min/10^5 cells

## CN(C)CCCN1c2ccccc2CCc2ccccc21 [IMI, Imipramine]
SERT WT
  Slope for [3H]IMI dissociation: 0.528 ± 0.012 min⁻¹
SERT; ref Plenge et al 1990 Eur J Pharmacol
  Allosteric properties at SERT: very weak allosteric properties

## NC(=O)c1ccc2c(c1)CO[C@@]2(CCCN1CCC(c2ccc3ccc(=O)[nH]c3c2)CC1)c1ccc(F)cc1 [Lu AF60097]
SERT; [3H]IMI bound to S1
  Allosteric potency: ~ 30 nM

— PMC8379219 (Nature Communications, 2021)
